Results reported in patent US5599815A, “Antipsychotic benzoisothiazolyl piperazine derivatives” (Meiji Seika Kabushiki Kaisha, priority 1993, dated 1997).
Where two headings read alike, the source gives them in different places.

Columns and labels:
[1] = Cataleptogenic activity (extrapyramidal side effect): catalepsy provoking effect in mice; conditions: mouse, in vivo, ip
Method: (§1) The extrapyramidal activity was evaluated on the basis of the catalepsy provoking effect as a representative pharmacological evaluation method of the extrapyramidal effect. Male ddY mice having a body weight of 25-35 g which were divided into groups consisting of 3-6 animals were subjected to the test. The compound of the present invention was administered intraperitoneally to observe catalepsy after 20, 30 and 40 minutes, respectively. Catalepsy was judged as positive in such cases that a mouse whose front paw was compulsorily hung up on an iron bar having a diameter of 1 mm and horizontally laid at a height of 3 cm remained in such a strained posture for more than 30 seconds.

[2] = system: catalepsy in mice; assay: as above; conditions: ip
Method: as §1

[3] = system: hyper locomotion induced by methamphetamine in mice; assay: Anti-methamphetamine effect (antipsychotic activity): suppression of hyper locomotion induced by methamphetamine in mice; type: in vivo, mice (male ddY); conditions: ip; for ED50: Mus musculus, read-out: Anti-methamphetamine effect ED50
Method: Antipsychotic activity was evaluated on the basis of the suppressive activity on the stimulation of hyper locomotion induced by methamphetamine in mice. Male ddY mice having a weight of 25-35 g were divided into groups consisting of 3-6 animals. The mouse was subcutaneously administered with methamphetamine (2 mg/kg) fifteen minutes before the compound of the present invention was intraperitoneally administered. After further fifteen minutes, the animal was then placed in an apparatus to measure the locomotion for thirty minutes. (MUROMACHI KIKAI, ANIMEX AUTO MK-110) The effects of haloperidol and chlorpromazine were also evaluated as controls.

[4] = male ddY mice, methamphetamine 2 mg/kg sc 15 min before compound, locomotion measured for 30 min

CN(C)CCCN1c2ccccc2Sc2ccc(Cl)cc21 [Chlorpromazine, chlorpromazine]
TD50 [1]: 6.2 mg/kg | catalepsy provoking effect / extrapyramidal side effect (in words) ([2]; male ddY mice): strong catalepsy provoking effect | ED50 [3]: 1.05 mg/kg | anti-methamphetamine activity, that is the anti-psychotic activity (in words) ([3]; male ddY mice): have the anti-methamphetamine activity

c1ccc2c(N3CCN(CCCCn4c5ccccc5c5ccccc54)CC3)nsc2c1 [Example 2, 9-[4-[4-(1,2-benzisothiazol-3-yl)-1-piperazinyl]butyl]carbazole]
TD50 [1]: > 100 mg/kg | catalepsy provoking effect / extrapyramidal side effect (in words) ([2]; mouse, in vivo): very weak extrapyramidal side effect | ED50 [3, 4]: 1.15 mg/kg | anti-methamphetamine activity, that is the anti-psychotic activity (in words) ([3]; male ddY mice): have the anti-methamphetamine activity

O=c1ccc2ccccc2n1CCCN1CCN(c2nsc3ccccc23)CC1 [Example 5, 1-[4-[4-(1,2-benzisothiazol-3-yl)-1-piperazinyl]propyl]-2(1H)-quinolinone]
TD50 [1]: 83.3 mg/kg | catalepsy provoking effect / extrapyramidal side effect (in words) ([2]; mouse, in vivo): very weak extrapyramidal side effect | ED50 [3, 4]: 0.92 mg/kg | anti-methamphetamine activity, that is the anti-psychotic activity (in words) ([3]; male ddY mice): have the anti-methamphetamine activity

O=C(CCCN1CCC(O)(c2ccc(Cl)cc2)CC1)c1ccc(F)cc1 [Haloperidol, haloperidol]
TD50 [1]: 1.3 mg/kg | catalepsy provoking effect / extrapyramidal side effect (in words) ([2]; male ddY mice): strong catalepsy provoking effect | ED50 [3]: 0.16 mg/kg | anti-methamphetamine activity, that is the anti-psychotic activity (in words) ([3]; male ddY mice): have the anti-methamphetamine activity
